Test results taken from patent publication US9896441B2 (Lycera Corporation, priority 2014, dated 2018).

Key:
RORγ-LBD = target: T1, RORγ-LBD (Homo sapiens, UniProt P51449); assay: RORγ-Ligand Binding Domain (LBD) TR-FRET Assay; assay type: biochemical; conditions: for TR-FRET Assay Max Response: maximum response;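 on TR-FRET Assay Max Response: 665/615 nm signal ratio set to 100 without ursolic acid or test compound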
T1 construct: made in house; host or cells: SF9 cells (baculovirus); used as diluted lysate
T1 sequence (P51449 269-508 limits assumed): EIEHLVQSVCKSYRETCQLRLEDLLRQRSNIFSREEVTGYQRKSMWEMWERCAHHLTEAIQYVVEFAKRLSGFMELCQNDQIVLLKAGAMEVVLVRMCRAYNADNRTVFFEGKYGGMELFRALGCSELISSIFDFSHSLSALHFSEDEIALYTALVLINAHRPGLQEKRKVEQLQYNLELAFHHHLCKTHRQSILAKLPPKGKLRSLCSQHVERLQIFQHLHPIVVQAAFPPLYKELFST
Method in brief: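 This TR-FRET coactivator assay pairs baculovirus-expressed His-RORγ-LBD (~3 nM final) with biotin-SRC1 LXXLL peptide at 200 nM final in pH 7.0 Tris/KCl/EDTA/DTT/BSA buffer.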

Gal4-RORγ-LBD = target: T2, Gal4-RORγ-LBD (Homo sapiens, UniProt P51449); assay: Gal4-RORγ Luciferase Reporter Assay in HEK-293T Cells; assay type: cell-based; conditions: HEK-293 cells; for Gal4-RORγ Assay Max Response: maximum response
T2 construct: expressed in transfected cells
T2 sequence (P51449 269-508 limits assumed): T1 sequence (P51449 269-508 limits assumed)
Method in brief: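 HEK-293 cells were co-transfected with Gal4-RORγ-LBD and a Gal4-luciferase reporter, then exposed overnight at 37 °C to compounds with […] ursolic acid present (0.2% DMSO). Luminescence was read with One-Glo after 10 min at RT, untreated signal was set as 100, and Max Response was taken as the upper plateau of a 4-parameter logistic fit.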

[1] = with 2 μM ursolic acid (RORγ antagonist), highest test concentration 10 μM
[2] = ursolic acid present, luciferase readout
[3] = luciferase reporter, in presence of ursolic acid
[4] = luciferase reporter, with ursolic acid

## O=C(O)CC[C@H]1CN(S(=O)(=O)c2cc(C3CC3)cnc2OCCO)c2cc(/C=C/c3c(F)cccc3Cl)ccc2O1 [Example 89FO, (S,E)-3-(6-(2-chloro-6-fluorostyryl)-4-((5-cyclopropyl-2-(2-hydroxyethoxy)pyridin-3-yl)sulfonyl)-3,4-dihydro-2H-benzo[b][1,4]oxazin-2-yl)propanoic acid]
RORγ-LBD; [1]
  EC50: < 500 nM
Gal4-RORγ-LBD; [2]
  EC50: < 500 nM

## CC(=O)N1CCN(C(=O)CC[C@H]2CN(S(=O)(=O)c3cccc(C(F)(F)F)c3)c3cc(/C=C(\C)c4c(F)cccc4Cl)ccc3O2)CC1 [Example 127J, (S,E)-1-(4-acetyl-piperazin-1-yl)-3-(6-(2-(2-chloro-6-fluorophenyl)prop-1-en-1-yl)-4-((3-(trifluoro-methyl)-phenyl)sulfonyl)-3,4-dihydro-2H-benzo[b]-[1,4]oxazin-2-yl)propan-1-one]
RORγ-LBD; RORγ-LBD TR-FRET assay
  EC50: < 500 nM
  TR-FRET Assay Max Response: *** (a value in the range of greater than 150 to 200)
Gal4-RORγ-LBD; [3]
  EC50: < 500 nM
  Gal4-RORγ Assay Max Response: ** (a value in the range of greater than 90 to 150)

## COC(=O)CC[C@H]1CN(S(=O)(=O)c2cccc(C(F)(F)F)c2)c2c(ccc(/C=C(\C)c3c(F)cccc3Cl)c2F)O1 [Example 61, Methyl (S,E)-3-(6-(2-(2-chloro-6-fluorophenyl)prop-1-en-1-yl)-5-fluoro-4-((3-(trifluoromethyl)phenyl)sulfonyl)-3,4-dihydro-2H-benzo[b][1,4]oxazin-2-yl)propanoate]
RORγ-LBD; RORγ-LBD TR-FRET
  EC50: < 500 nM
Gal4-RORγ-LBD; [4]
  EC50: 500 to 5000 nM

## COc1cc(S(=O)(=O)N2CCCc3ccc(OCc4c(C)cccc4Cl)cc32)ccc1F [Example 25W, 7-((2-chloro-6-methylbenzyl)oxy)-1-((4-fluoro-3-methoxyphenyl)sulfonyl)-1,2,3,4-tetrahydroquinoline]
RORγ-LBD; RORγ-LBD TR-FRET
  EC50: < 500 nM
Gal4-RORγ-LBD; [4]
  EC50: < 500 nM

## COC(=O)CC[C@H]1CN(S(=O)(=O)c2cccc(C(F)(F)F)c2)c2cc(/C=C(\C)c3ccccc3C(F)(F)F)ccc2O1 [Example 86AH, (S,E)-methyl 3-(6-(2-(2-(trifluoromethyl)phenyl)prop-1-en-1-yl)-4-((3-(trifluoromethyl)phenyl)-sulfonyl)-3,4-dihydro-2H-benzo[b][1,4]oxazin-2-yl)propanoate]
RORγ-LBD; RORγ-LBD TR-FRET
  EC50: < 500 nM
Gal4-RORγ-LBD; [4]
  EC50: 500 to 5000 nM

## O=C(O)CC[C@H]1CN(S(=O)(=O)c2ccc(F)c(OC(F)F)c2)c2cc(/C=C/c3c(F)cccc3Cl)ccc2O1 [Example 89CV, (S,E)-3-(6-(2-chloro-6-fluorostyryl)-4-((3-(difluoromethoxy)-4-fluorophenyl)-sulfonyl)-3,4-dihydro-2H-benzo[b][1,4]oxazin-2-yl)propanoic acid]
RORγ-LBD; RORγ-LBD TR-FRET
  EC50: < 500 nM
Gal4-RORγ-LBD; [4]
  EC50: < 500 nM

## CCOc1ncc(C(F)(F)F)cc1S(=O)(=O)N1C[C@H](CCC(=O)O)Oc2ccc(C=C3CCCCC3)cc21 [Example 95B, (S)-3-(6-(cyclohexylidenemethyl)-4-((2-ethoxy-5-(trifluoromethyl)pyridin-3-yl)sulfonyl)-3,4-dihydro-2H-benzo[b][1,4]oxazin-2-yl)propanoic acid]
RORγ-LBD; RORγ-LBD TR-FRET
  EC50: < 500 nM
Gal4-RORγ-LBD; [4]
  EC50: 500 to 5000 nM

## Cc1ccnc(/C=C/c2ccc3c(c2)N(S(=O)(=O)c2cccc(C(F)(F)F)c2)C[C@H](CCC(=O)O)O3)c1F [Example 89CH, (S,E)-3-(6-(2-(3-fluoro-4-methylpyridin-2-yl)vinyl)-4-((3-(trifluoromethyl)phenyl)sulfonyl)-3,4-dihydro-2H-benzo[b][1,4]-oxazin-2-yl)propanoic acid]
RORγ-LBD; RORγ-LBD TR-FRET
  EC50: < 500 nM
Gal4-RORγ-LBD; [4]
  EC50: > 10000 nM

## COC(=O)CCC1CC(S(=O)(=O)c2ccc(F)c(OC)c2)c2cc(/C=C(\C)c3c(F)cccc3Cl)ccc2O1 (centres unmarked) [Example 186F, methyl (E)-3-(6-(2-(2-chloro-6-fluorophenyl)prop-1-en-1-yl)-4-((4-fluoro-3-methoxyphenyl)sulfonyl)chroman-2-yl)propanoate]
RORγ-LBD; RORγ-LBD TR-FRET assay
  EC50: < 500 nM
  TR-FRET Assay Max Response: *** (a value in the range of greater than 150 to 200)
Gal4-RORγ-LBD; [3]
  EC50: < 500 nM
  Gal4-RORγ Assay Max Response: * (a value in the range of 30 to 90)

## O=C(O)CCC[C@H]1CN(S(=O)(=O)c2cc(C(F)(F)F)cnc2OCCO)c2cc(/C=C/c3c(F)cccc3Cl)ccc2O1 [Example 195B, (S,E)-4-(6-(2-chloro-6-fluorostyryl)-4-((2-(2-hydroxyethoxy)-5-(trifluoro-methyl)pyridin-3-yl)sulfonyl)-3,4-dihydro-2H-benzo[b][1,4]-oxazin-2-yl)butanoic acid]
RORγ-LBD; [1]
  EC50: < 500 nM
Gal4-RORγ-LBD; [2]
  EC50: < 500 nM

## C/C(=C\c1ccc2c(c1)N(S(=O)(=O)c1cccc(C(F)(F)F)c1)C[C@H](CCC(=O)N1CCS(=O)(=O)CC1)O2)c1c(F)cccc1Cl [Example 127C, (S,E)-3-(6-(2-(2-chloro-6-fluorophenyl)prop-1-en-1-yl)-4-((3-(trifluoro-methyl)phenyl)sulfonyl)-3,4-dihydro-2H-benzo[b][1,4]oxazin-2-yl)-1-(1,1-dioxidothio-morpholino)propan-1-one]
RORγ-LBD; RORγ-LBD TR-FRET assay
  EC50: < 500 nM
  TR-FRET Assay Max Response: **** (a value greater than 200)
Gal4-RORγ-LBD; [3]
  EC50: < 500 nM
  Gal4-RORγ Assay Max Response: ** (a value in the range of greater than 90 to 150)

## O=C(O)CC[C@H]1CN(S(=O)(=O)c2cc(C(F)(F)F)cnc2OCCO)c2cc(/C=C3\CC4CCC3C4)ccc2O1 (stereo partly drawn) [Example 95T, 3-((2S)-6-((E)-bicyclo[2.2.1]heptan-2-ylidenemethyl)-4-((2-(2-hydroxyethoxy)-5-(trifluoromethyl)pyridin-3-yl)sulfonyl)-3,4-dihydro-2H-benzo[b][1,4]oxazin-2-yl)propanoic acid]
RORγ-LBD; RORγ-LBD TR-FRET
  EC50: < 500 nM
Gal4-RORγ-LBD; [4]
  EC50: 500 to 5000 nM

## CC1CCC(=Cc2ccc3c(c2)N(S(=O)(=O)c2cc(C(F)(F)F)cnc2OCCO)C[C@H](CCC(=O)O)O3)CC1 (stereo partly drawn) [Example 95P, 3-((2S)-4-((2-(2-hydroxyethoxy)-5-(trifluoromethyl)pyridin-3-yl)sulfonyl)-6-((4-methylcyclohexylidene)methyl)-3,4-dihydro-2H-benzo[b][1,4]oxazin-2-yl)propanoic acid]
RORγ-LBD; RORγ-LBD TR-FRET
  EC50: < 500 nM
Gal4-RORγ-LBD; [4]
  EC50: 500 to 5000 nM

## CCn1cc(S(=O)(=O)N2C[C@H](CNC(C)=O)Oc3ccc(/C=C/c4ncccc4Cl)cc32)c(Cl)n1 [Example 109E, (S,E)-N-((4-((3-chloro-1-ethyl-1H-pyrazol-4-yl)sulfonyl)-6-(2-(3-chloropyridin-2-yl)vinyl)-3,4-dihydro-2H-benzo[b][1,4]-oxazin-2-yl)methyl)acetamide]
RORγ-LBD; RORγ-LBD TR-FRET assay
  EC50: < 500 nM
  TR-FRET Assay Max Response: **** (a value greater than 200)
Gal4-RORγ-LBD; [3]
  EC50: 500 to 5000 nM
  Gal4-RORγ Assay Max Response: ** (a value in the range of greater than 90 to 150)

## COc1cc(S(=O)(=O)N2C[C@H](CCNC(=O)[C@H](C)O)Oc3ccc(/C=C(\C)c4c(F)cccc4Cl)cc32)ccc1F [Example 116D, (S)-N-(2-((S)-6-((E)-2-(2-chloro-6-fluorophenyl)prop-1-en-1-yl)-4-((4-fluoro-3-methoxyphenyl)sulfonyl)-3,4-dihydro-2H-benzo[b][1,4]oxazin-2-yl)ethyl)-2-hydroxypropanamide]
RORγ-LBD; RORγ-LBD TR-FRET assay
  EC50: < 500 nM
  TR-FRET Assay Max Response: *** (a value in the range of greater than 150 to 200)
Gal4-RORγ-LBD; [3]
  EC50: < 500 nM
  Gal4-RORγ Assay Max Response: ** (a value in the range of greater than 90 to 150)

## COc1cc(S(=O)(=O)N2CCCc3ccc(OC4CCCc5ccccc54)cc32)ccc1F (centres unmarked) [Example 25C, 1-((4-fluoro-3-methoxyphenyl)sulfonyl)-7-((1,2,3,4-tetrahydronaphthalen-1-yl)oxy)-1,2,3,4-tetrahydroquinoline]
RORγ-LBD; RORγ-LBD TR-FRET
  EC50: < 500 nM
Gal4-RORγ-LBD; [4]
  EC50: < 500 nM

## C/C(=C\c1ccc2c(c1)N(S(=O)(=O)c1cccc(C(F)(F)F)c1)CC(C(=O)O)C2)c1c(F)cccc1C(F)(F)F (centres unmarked) [Example 15C, (E)-7-(2-(2-fluoro-6-(trifluoromethyl)phenyl)prop-1-en-1-yl)-1-((3-(trifluoromethyl)phenyl)sulfonyl)-1,2,3,4-tetrahydroquinoline-3-carboxylic acid]
RORγ-LBD; RORγ-LBD TR-FRET
  EC50: < 500 nM
Gal4-RORγ-LBD; [4]
  EC50: 500 to 5000 nM

## CCOc1nn(CC)cc1S(=O)(=O)N1C[C@H](CCC(=O)O)Oc2ccc(/C=C/c3cccc(Cl)n3)cc21 [Example 89AA, (S,E)-3-(6-(2-(6-chloropyridin-2-yl)vinyl)-4-((3-ethoxy-1-ethyl-1H-pyrazol-4-yl)sulfonyl)-3,4-dihydro-2H-benzo[b][1,4]oxazin-2-yl)propanoic acid]
RORγ-LBD; RORγ-LBD TR-FRET
  EC50: 500 to 5000 nM
Gal4-RORγ-LBD; [4]
  EC50: > 10000 nM

## COC(=O)CC[C@H]1CN(S(=O)(=O)c2cccc(C(F)(F)F)c2)c2cc(/C=C/c3c(Cl)cccc3C(C)(F)F)ccc2O1 [Example 89EW, methyl (S,E)-3-(6-(2-chloro-6-(1,1-difluoroethyl)styryl)-4-((3-(trifluoromethyl)phenyl)-sulfonyl)-3,4-dihydro-2H-benzo[b][1,4]oxazin-2-yl)propanoate]
RORγ-LBD; RORγ-LBD TR-FRET
  EC50: < 500 nM
Gal4-RORγ-LBD; [4]
  EC50: < 500 nM

## O=C(O)CCC[C@H]1CN(S(=O)(=O)c2cccc(C(F)(F)F)c2)c2cc(/C=C/c3c(F)cccc3Cl)ccc2O1 [Example 195D, (S,E)-4-(6-(2-chloro-6-fluorostyryl)-4-((3-(trifluoro-methyl)phenyl)sulfonyl)-3,4-dihydro-2H-benzo[b][1,4]oxazin-2-yl)butanoic acid]
RORγ-LBD; [1]
  EC50: < 500 nM
Gal4-RORγ-LBD; [2]
  EC50: < 500 nM
